In patent US10752900B2, “Oligonucleotides for modulating gene expression and uses thereof” (BIOGENERA S.P.A., priority 2012, dated 2020):

Assays:
MYCN gene [1] = test: QT-PCR, MYCN mRNA in Kelly cells; type: cell-based, human; conditions: for mRNA inhibition (%): Table 1, PNA 1 μM, RNA extracted after 24 hours; for mRNA inhibit. (%): Table 11, MYCN, 2.5 μM
Procedure: (§1) For the purpose of assessing the ability of the oligonucleotides of the present invention to modulate the expression of the target genes, their ability to reduce the quantity of messenger RNA was analyzed using the Real-Time PCR technique.
(§2) For this purpose, use was made of 24-well plates, which were seeded with 5.0×10^4 cells with 0.3 ml of OPTI-MEM (GIBCO BRL) medium, 4% FBS and 2 mM L-glutammine (experiments in triplicate) per well.
(§3) The cells were incubated for 24 hours at 37° C., in an atmosphere containing 5% CO2 to permit adherence to the base of the wells.
Each oligonucleotide analyzed, except for the PNA oligonucleotides, was incubated beforehand with 2 μl of Lipofectamine 2000 (Invitrogen), with 0.3 mL of serum-free OPTI-MEM (GIBCO BRL) medium.
(§4) For each well, the oligonucleotides were analyzed at the following final concentrations: • the antisense oligonucleotides siRNA and siRNA gapmer (i.e. the oligonucleotides containing one or more monomers of chemically modified nucleic acids at the 3′ or 5′ end, while in the central portion they have monomers of nucleic acids that have not been modified or have been modified at the level of the phosphodiester bond as a phosphorothioate bond) were used at 200 nM; • the antisense oligonucleotides containing phosphorothioate DNA monomers, the RNA antigene oligonucleotides (agRNA) and the oligonucleotides containing DNA monomers and LNA monomers were used at 10 μM; • the morpholino oligonucleotides were used at a concentration of 1 μM, and • the PNA oligonucleotides were administered at a concentration of 1 μM.
(§5) The cells were treated with the oligonucleotides, adding FBS up to 4% 6 hours after administration of the same. After 24 hours the total RNA was extracted from each well and purified using the RNeasy Mini Kit (QIAGEN).
(§6) Assays were performed on 8 cell lines obtained from 5 different human tumours which are correlated with MYCN expression, i.e.: • as a neuroblastoma model use was made of the cell lines Kelly, IMR-32 (where the MYCN gene is amplified and superexpressed) and SKNBE2c and LAN1 (where the MYCN gene is amplified and superexpressed and the p53 gene is mutated); • as a rabdomiosarcoma model use was made of the cell line RH30, where the MYCN gene is amplified and superexpressed; • as a Wilms' tumour model use was made of the cell line WiT49, where the MYCN gene is amplified and superexpressed; • as a retinoblastoma model use was made of the cell line Y79, where the MYCN gene is amplified and superexpressed; and • as a model of small cell lung cancer use was made of the cell line H69 where the MYCN gene is amplified and superexpressed.
(§7) As a control, use was made of the same cell lines as listed above treated with sterile water instead of oligonucleotides. Each RNA sample was quantified (in duplicate) using a NanoDrop ND-1000 spectrophotometer (NanoDrop Technologies). The first strand of cDNA was produced using the cDNA Synthesis Kit for RT-PCR (Roche). For the cDNA synthesis reaction a total of 1 μg of RNA was used. For the real-time PCR, 10 ng of cDNA in a final volume of 20 μl was used with SYBR Green Master Mix 2× (Applied Biosystems) (3 identical experiments were conducted in triplicate). Two housekeeping genes were used as positive controls: GAPDH and beta-actin (ACTB).
(§8) The conditions of the QT-PCR reaction were: 10 min at 95° C., 20 sec at 95° C., and 30 sec at 60° C., for 50 cycles.
(§9) As far as the PNA oligonucleotides are concerned, the results regarding their ability to inhibit the transcription of the MYCN gene and proliferation of Kelly cells are shown in Table 1.
(§10) The oligonucleotides were tested in vitro (at a concentration of 2.5 μM) to determine their ability to inhibit the transcription of the gene they are directed against by measuring the levels of the gene messenger in cellular models in which the gene of interest is overexpressed. The methods used are the ones described in example 1. […]

Kelly cells = test: Cellular proliferation assay (ATP-Lite), Kelly cells; type: cell-based, human
Procedure: (§11) For the purpose of assessing the gene modulation ability of the oligonucleotides of the present invention, the effect of their administration on cell viability was determined.
(§12) For this purpose 5×10^3 cells per well were seeded into 96-well cell culture plates (experiments conducted in triplicate) with 100 μl of OPTI-MEM (GIBCO BRL) medium containing 4% FBS and 2 mM of L-glutammine.
(§13) The PNA oligonucleotides were administered at different concentrations (1 μM-2.5 μM-5 μM-10 μM) in order to observe a dose-effect relationship.
As regards all the other oligonucleotides, the concentrations at which they administered are listed in the paragraph:
(§14) The viability of the treated cells was determined at 48, 72, 96 and 168 hours after treatment.
(§15) Cell viability was assessed by means of an ATP-Lite assay (Luminescence ATP Detection Assay System, PerkinElmer) and is reported as the ratio between the average signal of the treated wells compared to the average value of the wells of untreated control cells. The cells were processed following the instructions provided with the kit.
(§16) The assays were performed on the same cell lines used to determine the levels of the MYCN gene messenger and listed in the paragraph: Treatments with Oligonucleotides—QT-PCR.
as §9
(§17) The ability of the tested oligonucleotides to inhibit the messenger of the gene of interest was measured and the proliferative capacity of the cells following administration of the oligonucleotides was also assessed.

Phoenix = test: Cellular proliferation, Phoenix fibroblastoid-type cells; type: cell-based; conditions: Table 1; cells that do not express MYCN
Procedure: as §15
(§18) Moreover, the oligonucleotides having SEQ ID NO 1-23 were administered in lines of fibroblastoid-type cells (NIH-3T3 and Phoenix) and the results are shown in Table 1 (last two columns). […]

NIH-3T3 = test: Cellular proliferation, NIH-3T3 fibroblastoid-type cells; type: cell-based; conditions: Table 1; cells that do not express MYCN
Procedure: as §15, §18

MYCN gene [2] = test: QT-PCR, MYCN mRNA in H69 cells; type: cell-based, human; conditions: Table 11, MYCN, 2.5 μM
Procedure: as §1, §2, §3, §4, §5, §6, §7, §8
(§19) The PNAs having SEQ ID NO: 1-12 were also tested on different cell lines which overexpress MYCN (Kelly, SKNBE2c, RH30, WiT49, WERI-Rb1 1 and H69). The results are shown in Table 6 and confirm the selectivity and specificity of the inhibition effect of the PNAs on the product of protein translation of the MYCN gene.
as §10

H69 = test: Cellular proliferation assay (ATP-Lite), H69 cells; type: cell-based, human; conditions: Table 11, MYCN-directed PNA, 2.5 μM
Procedure: as §11, §12, §13, §14, §15, §16, §19, §17

[3] = Table 1, treated vs untreated control cells
[4] = Table 11, MYCN-directed PNA, 2.5 μM

Row | Substance | mRNA inhibition (%) (MYCN gene [1]) | Cell Prolif. (%) (Kelly cells; [3]) | Phoenix prolif. (%) (Phoenix) | NIH-3T3 prolif. (%) (NIH-3T3) | mRNA inhibit. (%) (MYCN gene [1]) | Cell Prolif. (%) (Kelly cells; [4]) | mRNA inhibit. (%) (MYCN gene [2]) | Cell Prolif. (%) (H69)
1 | SEQ ID NO: 13: PNA antigene oligonucleotide ACGCTCAGGGACCACG directed against MYCN (all peptide nucleic acid (PNA)) | 48% | 66% | 100% | 100% |  |  |  | 
2 | SEQ ID NO: 14: PNA antigene oligonucleotide CCCGGACGAAGATGAC directed against MYCN (all peptide nucleic acid (PNA)) | 40% | 70% | 100% | 100% |  |  |  | 
3 | SEQ ID NO: 15: PNA antigene oligonucleotide ACTGTGTTGGAGCCGA directed against MYCN (all peptide nucleic acid (PNA)) | 37% | 77% | 100% | 100% |  |  |  | 
4 | SEQ ID NO: 16: PNA CCTGTCGTAGACAGCT without groups of consecutive guanines, negative control (PNA backbone, chemistry not fully specified) [reference compound] | 14% | 90% | 100% | 100% |  |  |  | 
5 | SEQ ID NO: 17: PNA TGTGACAGTCATCTGT without groups of consecutive guanines, negative control (PNA backbone, chemistry not fully specified) [reference compound] | 10% | 98% | 100% | 100% |  |  |  | 
6 | SEQ ID NO: 18: PNA GTGACAGTCATCTGTC without groups of consecutive guanines, negative control (PNA backbone, chemistry not fully specified) [reference compound] | 10% | 98% | 100% | 100% |  |  |  | 
7 | SEQ ID NO: 19: PNA GACAGTCATCTGTCTG without groups of consecutive guanines, negative control (PNA backbone, chemistry not fully specified) [reference compound] | 5% | 100% | 100% | 100% |  |  |  | 
8 | SEQ ID NO: 20: PNA CGTCGATTTCTTCCTC without groups of consecutive guanines, negative control (PNA backbone, chemistry not fully specified) [reference compound] | 5% | 100% | 100% | 100% |  |  |  | 
9 | SEQ ID NO: 21: PNA CTCGAGTTTGACTCGC without groups of consecutive guanines, negative control (PNA backbone, chemistry not fully specified) [reference compound] | 1% | 100% | 100% | 100% |  |  |  | 
10 | SEQ ID NO: 22: PNA GCGCCTCCCCTGATTT without groups of consecutive guanines, negative control (PNA backbone, chemistry not fully specified) [reference compound] | 2% | 100% | 100% | 100% |  |  |  | 
11 | SEQ ID NO: 23: PNA ATATCCCCCGAGCTTC without groups of consecutive guanines, negative control (PNA backbone, chemistry not fully specified) [reference compound] | 2% | 100% | 100% | 100% |  |  |  | 
12 | SEQ ID NO: 66: PNA TCGGGAGCAGTGGGCA directed against MYCN (all peptide nucleic acid (PNA); antigene PNA, further chemistry not fully specified) |  |  |  |  | 57% | 60% | 41% | 73%
13 | SEQ ID NO: 67: PNA GCGGGTCGCGGGCACG directed against MYCN (all peptide nucleic acid (PNA); antigene PNA) |  |  |  |  | 60% | 56% | 42% | 71%
14 | SEQ ID NO: 68: PNA TGGAGGTCGGCGCCGG directed against MYCN (all peptide nucleic acid (PNA); antigene PNA) |  |  |  |  | 74% | 35% | 62% | 49%
15 | SEQ ID NO: 69: PNA TCGGCGGGAGGTAAGG directed against MYCN (all peptide nucleic acid (PNA); antigene PNA) |  |  |  |  | 76% | 30% | 67% | 45%
